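Where inhibition never reached the appropriate level, the endpoint shown equals the highest concentration tested. Otherwise, values were interpolated linearly from a five-concentration, 48-hour dose response in 96-well plates. Abbreviation: GI50, concentration required for 50% inhibition of growth.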 Active and inactive are the calls of the source. Rule as the data show it: active = GI50 up to about 1.1 µM and inactive = higher.

The record followed here is ChEMBL document CHEMBL1201862, “PubChem BioAssay data set” (2004).

Holding throughout (test): NCI tumour cell line growth inhibition, 48 h
Experiment [1] concerns HCC 2998.
Experiment [2] has as its system OVCAR-5.
Experiment [3] deals with RXF 393.
The subject of experiment [4] is LOX IMVI.
Experiment [5] concerns M14.
The test system of experiment [6] is NCI-H522.
For experiment [7], the system named is DU-145.
The subject of experiment [8] is OVCAR-3.
Experiment [9] relates to ACHN.
The subject of experiment [10] is HOP-62.
Experiment [11] concerns MCF7.
Experiment [12] has as its system SF-295.
Experiment [13] relates to HOP-92.
Experiment [14] has as its system SW-620.
Experiment [15] deals with OVCAR-4.
For experiment [16], the system named is IGROV-1.
Experiment [17] has as its system NCI-H23.
Experiment [18] deals with NCI/ADR-RES.
Experiment [19] relates to SK-MEL-5.
For experiment [20], the system named is SNB-19.

With `CCN(CC)CC[S+]([O-])c1c2cc(OC)ccc2nc2ccc(OC)cc12` (stereo not given), the GI50 was 18.3 µM (inactive) in experiment [1]; 16.6 µM (inactive) in experiment [2]; 7.33 µM (inactive) in [3]; 3.23 µM (inactive) in experiment [4]; 9.55 µM (inactive) in experiment [5]; 0.603 µM (active) in experiment [6]. For the same compound, the GI50 is 1.91 µM (inactive) in experiment [7]; 3.39 µM (inactive) in experiment [8]; 2.38 µM (inactive) in experiment [9]; 19.4 µM (inactive) in experiment [10]; 2.42 µM (inactive) in experiment [11]; 21.8 µM (inactive) in experiment [12]. Moreover, the GI50 is 3.28 µM (inactive) in [13]; 3.03 µM (inactive) in [14]; 14.4 µM (inactive) in [15]; 2.54 µM (inactive) in experiment [16]; 7.64 µM (inactive) in experiment [17]; 19.6 µM (inactive) in experiment [18]. Besides, the results for the GI50 in [19] and in experiment [20] were 16.5 µM (inactive) and 22.7 µM (inactive), respectively.

For the compound `O=C1C(CN2CCOCC2)CCCC1CN1CCOCC1` (stereo not given), the GI50 in [1] was 5.27 µM (inactive); in experiment [2] it was 18.6 µM (inactive); in [3] it was 1.75 µM (inactive); in experiment [4] it was 3.28 µM (inactive); in experiment [5] it was 3.44 µM (inactive); in [6] it was 0.0597 µM (active). For the same compound, the GI50 in experiment [7] is 17.3 µM (inactive); in experiment [8], 3.1 µM (inactive); in [9] it was 1.88 µM (inactive); in experiment [10] it was > 100 µM (inactive); in [11] it was 0.303 µM (active); in experiment [12] it was 33.4 µM (inactive). Further, the GI50 in [13] is 0.92 µM (active); in [14], 0.436 µM (active); in experiment [15] it was 2.18 µM (inactive); in experiment [16] it was 8.79 µM (inactive); in experiment [17], 6 µM (inactive); in experiment [18], 2.18 µM (inactive). For the same compound, the GI50 is 11.1 µM (inactive) in [19] and 30.8 µM (inactive) in experiment [20].

`CCOC(=O)c1c(OCC)[nH]c(=O)c(C(c2ccc(F)cc2)c2c(O)c(C(=O)OCC)c(OCC)[nH]c2=O)c1O`: the GI50 is 18.1 µM (inactive) in [1]; 29 µM (inactive) in experiment [2]; 4.28 µM (inactive) in experiment [3]; 16.6 µM (inactive) in experiment [4]; 24.6 µM (inactive) in experiment [5]; 18.6 µM (inactive) in experiment [6]. For the same compound, the GI50 in experiment [7] was 11.1 µM (inactive); in [8], 15.4 µM (inactive); in experiment [9], 16.3 µM (inactive); in [10] it was 13 µM (inactive); in experiment [11], 20.4 µM (inactive); in [12], 17.7 µM (inactive). Further, the GI50 is 1.46 µM (inactive) in [13]; 17.3 µM (inactive) in experiment [14]; 14.6 µM (inactive) in experiment [15]; 14.9 µM (inactive) in [16]; 19.5 µM (inactive) in experiment [17]; 24.1 µM (inactive) in [18]. Further, the results for the GI50 in experiment [19] and in experiment [20] were 12.8 µM (inactive) and 17.1 µM (inactive), respectively.

As to `O=S(=O)(/C=C/C=C/[S+]([O-])c1ccccc1)c1ccccc1` (stereo not given), the GI50 in [1] was > 10 µM (inactive); in experiment [2], > 8.22 µM (inactive); in experiment [3], 1.58 µM (inactive); in experiment [4] it was 1.03 µM (active); in [5], 0.685 µM (active); in experiment [6] it was 1.59 µM (inactive). Further, the GI50 in [7] was > 4.42 µM (inactive); in [8], 1.53 µM (inactive); in [9], 2.34 µM (inactive); in experiment [10], > 10 µM (inactive); in experiment [11], 0.887 µM (active); in experiment [12] it was > 10 µM (inactive). Moreover, the GI50 in experiment [13] is 1.96 µM (inactive); in experiment [14], 1.3 µM (inactive); in experiment [15], 1.59 µM (inactive); in experiment [16] it was > 5.41 µM (inactive); in [17], 1.96 µM (inactive); in experiment [18] it was 2.12 µM (inactive). For the same compound, the GI50 in experiment [19] is 1.03 µM (active); in [20], > 10 µM (inactive).

Take `COc1ccc(/C=C(/c2ccccc2)c2c(C)cc(C)c(/C(=C\c3ccc(OC)cc3)c3ccccc3)c2/N=N/c2cc(C)cc(C)c2)cc1`: the GI50 is 8.34 µM (inactive) in experiment [1]; > 84.5 µM (inactive) in [2]; 32.3 µM (inactive) in [3]; 24.2 µM (inactive) in experiment [4]; 44.6 µM (inactive) in [5]; 15 µM (inactive) in experiment [6]. The GI50 in [7] is 25.6 µM (inactive); in experiment [8], 4.1 µM (inactive); in experiment [9], > 56.5 µM (inactive); in experiment [10], 20.9 µM (inactive); in experiment [11] it was 9.91 µM (inactive); in [12] it was 24.7 µM (inactive). The GI50 in [13] is 33.6 µM (inactive); in [14] it was 13.5 µM (inactive); in experiment [15] it was 20.1 µM (inactive); in experiment [16], 14.4 µM (inactive); in [17], 14.4 µM (inactive); in [18], > 100 µM (inactive). In addition, the GI50 was 17.6 µM (inactive) in experiment [19] and 15.5 µM (inactive) in [20].

For the compound `COc1ccc(/C=C2\CCC(CNc3cc(C)on3)C2=O)cc1` (stereo not given), the GI50 in experiment [1] was > 44.9 µM (inactive); in experiment [2], > 100 µM (inactive); in experiment [3] it was > 21.5 µM (inactive); in experiment [4], > 100 µM (inactive); in experiment [5], > 100 µM (inactive); in [6], 79.8 µM (inactive). Further, the GI50 in experiment [7] is > 83.6 µM (inactive); in experiment [8] it was > 100 µM (inactive); in experiment [9] it was > 100 µM (inactive); in [10], 47.4 µM (inactive); in [11], > 100 µM (inactive); in experiment [12], 74.6 µM (inactive). The GI50 in experiment [13] is > 100 µM (inactive); in experiment [14], > 100 µM (inactive); in [15], > 100 µM (inactive); in [16], 98.2 µM (inactive); in experiment [17], > 78.2 µM (inactive); in [18], > 54 µM (inactive). In addition, the GI50 in experiment [19] is > 100 µM (inactive); in experiment [20], 64.4 µM (inactive).

As to `CC(/C=N\NC(=S)N(C)C)=N/NC(=S)N(C)C`, the GI50 in [1] was 2.49 µM (inactive); in experiment [2] it was 10.9 µM (inactive); in experiment [3], 0.586 µM (active); in [4] it was 0.273 µM (active); in experiment [5] it was 0.393 µM (active); in experiment [6], 0.243 µM (active). In addition, the GI50 in experiment [7] is 0.195 µM (active); in experiment [8], 0.317 µM (active); in experiment [9], 0.113 µM (active); in [10], 0.327 µM (active); in experiment [11], 0.759 µM (active); in [12] it was 0.147 µM (active). The GI50 in experiment [13] is 1.84 µM (inactive); in [14], 0.0832 µM (active); in experiment [15], 5.16 µM (inactive); in experiment [16] it was 0.575 µM (active); in experiment [17], 1.12 µM (inactive); in experiment [18] it was 0.202 µM (active). The GI50 in [19] is 0.505 µM (active); in experiment [20] it was 0.721 µM (active).

Turning to `C=C1CN2CC(=C)CN(C1)CS(=O)(=O)N1CC(=C)CN(CC(=C)C1)S(=O)(=O)N1CC(=C)CN(CC(=C)C1)S(=O)(=O)C2`, the GI50 is 17.7 µM (inactive) in experiment [1]; 56.8 µM (inactive) in [2]; 19.5 µM (inactive) in [3]; > 100 µM (inactive) in [4]; 37.6 µM (inactive) in experiment [5]; 32.4 µM (inactive) in [6]. For the same compound, the GI50 in experiment [7] is 38.3 µM (inactive); in experiment [8], > 100 µM (inactive); in experiment [9], 47.1 µM (inactive); in experiment [10] it was 20.6 µM (inactive); in experiment [11], 50.1 µM (inactive); in experiment [12], 31.9 µM (inactive). Further, the GI50 is 31.3 µM (inactive) in experiment [13]; 71.8 µM (inactive) in experiment [14]; 34.3 µM (inactive) in experiment [15]; 59.8 µM (inactive) in experiment [16]; 78.7 µM (inactive) in experiment [17]; > 100 µM (inactive) in experiment [18]. Also, the GI50 in [19] was 19.4 µM (inactive); in experiment [20], 40.7 µM (inactive).

`O=c1[nH]nc(Cc2ccccc2)n1/N=C/c1ccccc1O`: the GI50 in experiment [1] is > 100 µM (inactive); in experiment [2], > 100 µM (inactive); in experiment [3], 23.4 µM (inactive); in [4], > 100 µM (inactive); in experiment [5] it was > 100 µM (inactive); in experiment [6], > 100 µM (inactive). Also, the GI50 is > 100 µM (inactive) in experiment [7]; > 100 µM (inactive) in [8]; > 100 µM (inactive) in [9]; 25.9 µM (inactive) in [10]; > 100 µM (inactive) in experiment [11]; 57.7 µM (inactive) in experiment [12]. The GI50 in [13] was 53.7 µM (inactive); in [14], > 100 µM (inactive); in experiment [15], > 100 µM (inactive); in experiment [16], 83.8 µM (inactive); in experiment [17], > 100 µM (inactive); in [18], > 100 µM (inactive). In addition, the GI50 is > 100 µM (inactive) in experiment [19] and 79.8 µM (inactive) in [20].

Take `COc1cc2cc(C(=O)N3CC(CCl)c4c3cc([N+](=O)[O-])c3ccccc43)[nH]c2c(OC)c1OC` (stereo not given): the GI50 in [1] was 14.1 µM (inactive); in experiment [2], 25.6 µM (inactive); in [3], > 89.3 µM (inactive); in experiment [4], 49.9 µM (inactive); in experiment [5], 46.6 µM (inactive); in [6], 24.7 µM (inactive). Besides, the GI50 in experiment [7] was 12.5 µM (inactive); in [8] it was > 100 µM (inactive); in experiment [9] it was 11.2 µM (inactive); in experiment [10], 8.91 µM (inactive); in experiment [11], 17.3 µM (inactive); in experiment [12], 14.7 µM (inactive). Moreover, the GI50 in experiment [13] is > 70.1 µM (inactive); in [14], > 100 µM (inactive); in experiment [15] it was > 51.2 µM (inactive); in experiment [16], 33 µM (inactive); in experiment [17], 27.2 µM (inactive); in experiment [18], 9.06 µM (inactive). Further, the GI50 in experiment [19] was 29.6 µM (inactive); in experiment [20], 87.7 µM (inactive).
